In patent publication EP3311800B1, “COMPOSITION COMPRISING MICROSTRUCTURES FOR THE CONTROLLED RELEASE OF OZONIZED OIL” (Project & Communications, Ltd., priority 2016, dated 2018):

System: fibroblast L929
Assay: cytotoxicity test (MTT test), UNI EN ISO 10993-5:2009
Format: cell-based
Conditions: Mus musculus
Description: The four compositions indicated above were subjected to a cytotoxicity test (MTT test).
As is known, the cytotoxicity test (MTT test) is a reduction test used for determining the level of metabolic activity in the eukaryote cells. This is one of the most widely used cytotoxicity tests, thanks to its simplicity, accuracy and reproducibility. The chemical base of the test is the reduction of MTT, a tetrazole compound [3-(4,5-dimethylthiazol-2-yl)-2,5-diphenyltetrazolium bromide]. MTT is a yellow substance which, after reduction, forms a purple-colored formazan salt.
The process mainly takes place in the cytoplasm and secondarily in the mitochondria and at the level of the plasmatic membrane. The activity of the reductase that catalyze the reaction is highly dependent on the concentration of the intracellular NADH and NADPH, whose levels are associated with the availability of extracellular glucose. The mitochondrial succinate dehydrogenase and the cytochrome C also take part in the reduction of MTT. Consequently, any substance or treatment that interferes with these enzymes or with the glycolysis would influence the reduction of MTT and would therefore alter the results of the cell count. As a result of these metabolic reduction processes, dark purple crystals of formazan are formed within a few hours. These crystals can be solubilized in various organic solvents, mainly alcohols. An increase or a reduction in the number of cells causes an analogous variation in the quantity of formazan formed, thus giving an indication of the degree of cytotoxicity of the product tested.
The MTT test was carried out on cultures of fibroblast L929 treated with the extract (transfer liquid as such obtained after overnight incubation of the composition under examination in the culture medium) and subsequent dilutions 1:2. The same procedure was also applied for the negative reference (internal standard), whereas the positive control (SDS) was tested at concentrations ranging from 0.00313 to 0.4 mg/ml. Sodium dodecyl sulfate (SDS), a substance with known cytotoxic effects was used as positive control, whereas a non-cytotoxic internal standard was used as negative reference. The analysis was carried out according to the ISO standard for the biological evaluation of medical devices UNI EN ISO 10993-5:2009 (E) .
More specifically, an adequate number of cells was seeded in 96-well plates. Once a semi-confluent monolayer had been reached, the cells were treated with the various concentrations of the sample tested and standards and incubated for 24 hours under standard conditions. Non-treated cells kept in the culture medium represent the negative controls. After 24 hours of contact, the plates were examined under a phase contrast microscope, the medium was carefully removed from each well, the cells were then treated with MTT (1 mg/ml) and incubated for 3 hours under standard conditions. At the end of this period, the solution of MTT was eliminated and 100 µl of isopropanol were added to each well to dissolve the formazan crystals formed. The absorbance (optical density, OD) was determined by reading the spectrophotometer at a wavelength of 540 nm.
The inhibition of the cell vitality at each tested concentration was expressed as a percentage with respect to the negative control (non-treated cells) according to the following formula: Inhibition % = 100−[ODX /ODNC )×100] […]
The values thus calculated were charted against the same concentrations. […]

## CCCCCCCCCCCCOS(=O)(=O)[O-].[Na+] [SDS, Sodium dodecyl sulfate]
Concentration 0.05 mg/ml, 24 hours, read-out: Cell vitality inhibition (%)
  inhibition at 50 µg/mL: 66.5%
Concentration 0.1 mg/ml, 24 hours, read-out: Cell vitality inhibition (%)
  inhibition at 100 µg/mL: 97.2%
Concentration 0.2 mg/ml, 24 hours, read-out: Cell vitality inhibition (%)
  inhibition at 200 µg/mL: 97.5%
Concentration 0.4 mg/ml, 24 hours, read-out: Cell vitality inhibition (%)
  inhibition at 400 µg/mL: 96.8%
Concentration inhibiting cell vitality by 50%, extrapolated from concentration/response curve
  IC50: 46 mg/L
